{"source": "patent US5922887A", "about": "“Diaryldiamine derivatives and their use as delta opiod (ANT)-agonists” (SmithKline Beecham SpA, priority 1995, dated 1999)", "key": {"delta opioid receptor [1]": {"biological_target": "T1, delta opioid receptor (Mus musculus, UniProt P32300)", "T1 sequence (P32300 whole entry)": "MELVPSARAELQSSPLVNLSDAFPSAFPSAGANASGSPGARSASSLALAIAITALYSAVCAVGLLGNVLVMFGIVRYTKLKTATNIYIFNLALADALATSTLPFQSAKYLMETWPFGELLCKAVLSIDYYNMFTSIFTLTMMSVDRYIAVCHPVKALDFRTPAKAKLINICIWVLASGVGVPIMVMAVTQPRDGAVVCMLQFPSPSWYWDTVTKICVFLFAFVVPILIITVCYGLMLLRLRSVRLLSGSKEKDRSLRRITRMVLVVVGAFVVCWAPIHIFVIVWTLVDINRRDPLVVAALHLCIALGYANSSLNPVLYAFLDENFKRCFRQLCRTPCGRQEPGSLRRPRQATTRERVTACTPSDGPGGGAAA", "experiment": "radioligand binding assay, delta receptor ([3H]-DADLE, mouse brain membranes)", "conditions": "[3H]-DADLE 1.3 nM in presence of 40 nM DAMGO, read-out: Ki δ", "protocol": "(§1) The activity of the compounds of the present invention as selective delta ligands is determined in radioligand binding assays as described below.\n(§2) Mouse brain membranes were prepared as described by Kosterlitz (Br. J. Pharmacol., 1981, 73, 939.). The binding of the preferential delta ligand [^3 H]-[D-Ala^2, D-Leu^5 ]-enkephalin (DADLE) was evaluated at its KD concentration (1.3 nM) in presence of 40 nM of the unlabelled mu ligand [D-Ala^2, MePhe^4, Gly-ol^5 ]-enkephalin (DAMGO). The binding of the mu ligand [^3 H]-DAMGO (Eur. J. Pharmacol., 1989, 166, 213) and of the kappa ligand [^3 H]-U69593 (Excerpta Medica, 1990, 211) were carried out at 0.5 nM. The non-specific binding was determined in presence of naloxone (10 μM) for all tritiated ligands. Binding data were expressed as percentage of inhibition and fitted the following equation: f(x)=100·X/(IC50 +X) where X are cold drug concentration values. The IC50 obtained were used to calculate the inhibitory constants (Ki) accordingly to the Cheng and Prusoff relation (Biochenl. Pharmaco., 1973, 22, 3099)."}, "delta opioid receptor [2]": {"biological_target": "T1, delta opioid receptor", "experiment": "mouse vas deferens (MVD) bioassay, delta agonist/antagonist activity", "set-up": "Vasa deferentia were obtained from CD-1 mice; from tissue; host or cells: vas deferens of CD-1 mice", "protocol": "The delta agonist/antagonist activity of the compounds of the present invention is determined in the mouse vas deferens (MVD) bioassay as described below.\nVasa deferentia were obtained from CD-1 mice and were suspended in a Mg^2+ -free Krebs buffer at 37° C. The tissues were electrically stimulated with pulse trans having the following parameters: train duration 50 ms, stimulus duration 2 ms, frequency of stimuli 50 Hz, maximal voltage 60-70 V, train frequency 0.1 Hz. Concentration response curves for each compounds were constructed cumulatively. Linear regression analysis and IC50 concentrations were evaluated according to Tallarida and Murray (Manual of Pharmacological Calculations, Springer Verlag N.Y., 1981)."}, "mu opioid receptor": {"biological_target": "T2, mu opioid receptor (Mus musculus, UniProt P42866)", "T2 construct": "Mouse brain membranes were prepared as described by Kosterlitz; from tissue; host or cells: mouse brain membranes", "T2 sequence (P42866 whole entry)": "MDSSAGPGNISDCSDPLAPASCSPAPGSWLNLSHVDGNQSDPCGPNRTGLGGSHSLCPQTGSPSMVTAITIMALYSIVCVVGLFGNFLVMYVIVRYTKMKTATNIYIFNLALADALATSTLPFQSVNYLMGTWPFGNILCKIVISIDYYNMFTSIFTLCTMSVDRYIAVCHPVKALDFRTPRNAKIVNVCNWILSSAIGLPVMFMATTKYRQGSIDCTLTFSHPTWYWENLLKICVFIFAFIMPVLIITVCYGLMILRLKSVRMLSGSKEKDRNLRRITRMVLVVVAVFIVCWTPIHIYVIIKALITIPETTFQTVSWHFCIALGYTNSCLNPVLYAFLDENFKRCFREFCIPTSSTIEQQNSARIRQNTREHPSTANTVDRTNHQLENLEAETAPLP", "experiment": "radioligand binding assay, mu receptor ([3H]-DAMGO, mouse brain membranes)", "conditions": "selectivity ratio mu over delta", "protocol": "as §1, §2"}, "kappa opioid receptor": {"biological_target": "T3, kappa opioid receptor (Mus musculus, UniProt P33534)", "T3 construct": "Mouse brain membranes were prepared as described by Kosterlitz; from tissue; host or cells: mouse brain membranes", "T3 sequence (P33534 whole entry)": "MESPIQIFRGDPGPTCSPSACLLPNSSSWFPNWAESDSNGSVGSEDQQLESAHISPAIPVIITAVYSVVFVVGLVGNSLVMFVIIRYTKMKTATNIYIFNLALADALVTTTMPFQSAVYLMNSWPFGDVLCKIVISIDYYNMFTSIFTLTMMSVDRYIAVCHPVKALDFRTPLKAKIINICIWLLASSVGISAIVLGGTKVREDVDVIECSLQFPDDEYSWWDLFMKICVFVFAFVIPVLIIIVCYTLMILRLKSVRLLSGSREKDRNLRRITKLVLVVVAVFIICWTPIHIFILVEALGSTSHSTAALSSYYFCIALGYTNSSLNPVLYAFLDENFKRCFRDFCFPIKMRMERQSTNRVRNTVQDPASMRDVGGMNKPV", "experiment": "radioligand binding assay, kappa receptor ([3H]-U69593, mouse brain membranes)", "conditions": "selectivity ratio kappa over delta", "protocol": "as §1, §2"}}, "note": "Counter-ions that a name gives are not always drawn.", "data": [{"smiles": "CCN(CC)C(=O)c1ccc(N(c2cccc(O)c2)C(C)CN2CCCC2)cc1", "note": "(racemic) [Example 5, (±)-N,N-diethyl-4-[[N-(3-hydroxyphenyl)-N-(3-pyrrolidinoprop-2-yl)]amino]benzamide citrate]", "values": [{"measurement": "Ki", "setting": "delta opioid receptor [1]", "value": 3.9, "unit": "nM"}, {"measurement": "shift of the dose-response curve caused by NTI", "setting": "delta opioid receptor [2]; 30 nM of NTI (naltrindole)", "value": 10, "unit": "fold"}, {"measurement": "IC50", "setting": "delta opioid receptor [2]; electrically stimulated CD-1 mouse vas deferens, 37° C., delta agonists", "value": 7, "unit": "nM"}]}, {"smiles": "CCN(CC)C(=O)c1ccc(N(c2cccc(O)c2)C(C)CN(C)C)cc1", "note": "(racemic) [Example 9, (±)-N,N-diethyl-4-[[N-(3-dimethylaminoprop-2-yl)-N-(3-hydroxyphenyl)]amino]benzamide oxalate]", "values": [{"measurement": "Ki μ/Ki δ", "setting": "mu opioid receptor", "value": 148}, {"measurement": "Ki", "setting": "delta opioid receptor [1]", "value": 3.9, "unit": "nM"}, {"measurement": "Ki κ/Ki δ", "setting": "kappa opioid receptor", "value": 153}]}]}
